Drawing on patent US9682959B2, “Ethynyl derivatives” (Hoffmann-La Roche Inc., priority 2013, dated 2017), this text covers Ki for 6 molecules.

The target in this test is rat mGlu 5a receptor (Rattus norvegicus (Rat), UniProt P31424). Briefly: MPEP binding / [Ca2+]i FLIPR measurement on mGlu 5a transfected EBNA cells, antagonists tested against 10 μM glutamate. As to conditions: rat mGlu 5a receptor transiently transfected into EBNA cells; Ki calculated from IC50. As for the experimental part: The pharmacological activity of the compounds was tested using the following method: cDNA encoding rat mGlu 5a receptor was transiently transfected into EBNA cells using a procedure described by E.-J. Schlaeger and K. Christensen (Cytotechnology 1998, 15, 1-13). [Ca^2+]i measurements were performed on mGlu 5a transfected EBNA cells after incubation of the cells with Fluo 3-AM (obtainable by FLUKA, 0.5 μM final concentration) for 1 hour at 37° C. followed by 4 washes with assay buffer (DMEM supplemented with Hank's salt and 20 mM HEPES. [Ca^2+]i measurements were done using a fluorometric imaging plate reader (FLIPR, Molecular Devices Corporation, La Jolla, Calif., USA). When compounds were evaluated as antagonists they were tested against 10 μM glutamate as agonist.
rat mGlu 5a receptor, sequence (P31424 other isoform, or with tags, fused parts or gaps): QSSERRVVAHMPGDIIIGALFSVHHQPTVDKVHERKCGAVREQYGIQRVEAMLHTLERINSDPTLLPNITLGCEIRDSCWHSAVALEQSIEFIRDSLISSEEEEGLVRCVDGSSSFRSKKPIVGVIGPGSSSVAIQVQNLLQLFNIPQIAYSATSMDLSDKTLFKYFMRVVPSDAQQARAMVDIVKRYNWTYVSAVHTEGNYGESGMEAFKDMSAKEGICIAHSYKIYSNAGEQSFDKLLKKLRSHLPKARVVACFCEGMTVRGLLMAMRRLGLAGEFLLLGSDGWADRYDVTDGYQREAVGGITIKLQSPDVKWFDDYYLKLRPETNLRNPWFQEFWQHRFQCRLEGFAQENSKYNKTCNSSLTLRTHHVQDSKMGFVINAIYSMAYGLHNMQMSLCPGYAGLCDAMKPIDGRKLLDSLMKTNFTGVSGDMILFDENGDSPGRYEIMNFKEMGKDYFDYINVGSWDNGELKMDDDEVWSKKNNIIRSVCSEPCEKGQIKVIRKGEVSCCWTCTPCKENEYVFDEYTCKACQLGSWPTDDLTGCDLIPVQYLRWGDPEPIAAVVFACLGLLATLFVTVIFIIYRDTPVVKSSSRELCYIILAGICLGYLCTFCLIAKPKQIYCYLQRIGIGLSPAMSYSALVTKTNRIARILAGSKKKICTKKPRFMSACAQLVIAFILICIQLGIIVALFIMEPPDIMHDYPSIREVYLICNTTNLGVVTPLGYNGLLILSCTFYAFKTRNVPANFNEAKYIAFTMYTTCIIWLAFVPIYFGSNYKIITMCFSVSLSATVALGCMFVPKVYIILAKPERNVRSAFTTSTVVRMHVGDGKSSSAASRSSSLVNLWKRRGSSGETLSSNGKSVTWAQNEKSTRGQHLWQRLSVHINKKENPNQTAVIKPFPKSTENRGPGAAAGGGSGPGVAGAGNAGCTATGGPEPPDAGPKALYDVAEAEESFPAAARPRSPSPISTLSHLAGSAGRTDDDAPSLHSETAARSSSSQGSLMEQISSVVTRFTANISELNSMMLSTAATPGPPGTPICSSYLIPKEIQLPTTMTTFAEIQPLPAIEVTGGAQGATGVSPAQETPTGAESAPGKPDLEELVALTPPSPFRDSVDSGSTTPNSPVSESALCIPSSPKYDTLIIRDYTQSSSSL
The inhibition (antagonists) curves were fitted with a four parameter logistic equation giving IC50, and Hill coefficient using the iterative non linear curve fitting software Origin (Microcal Software Inc., Northampton, Mass., USA).
The Ki values of the compounds tested are given. The Ki value is defined by the following formula:
[formula] in which the IC50 values are those concentrations of the compounds tested in μM by which 50% of the effect of compounds are antagonized. [L] is the concentration and the EC50 value is the concentration of the compounds in μM which brings about 50% stimulation.
The compounds of the present invention are mGluR5 receptor antagonists.

Broadly, the Ki is the dissociation constant of the complex between target and ligand, obtained from inhibition or displacement. Turning to `CN1C(=O)C(C)(C)N=C1c1ccc(C#Cc2cccc(F)c2)cn1` [Example 1, 2-[5-[2-(3-Fluorophenyl)ethynyl]-2-pyridyl]-3,5,5-trimethyl-imidazol-4-one], the Ki was 18 nM.

Take `CN1C(=O)C(C)(C)N=C1c1ccc(C#Cc2ccccc2)cn1` [Example 2, 3,5,5-Trimethyl-2-[5-(2-phenylethynyl)-2-pyridyl]imidazol-4-one]: the inhibitory constant (Ki) was 38 nM.

Regarding `CN1C(=O)C(C)(C)N=C1c1ccc(C#Cc2cccc(Cl)c2)cn1` [Example 3, 2-[5-[2-(3-Chlorophenyl)ethynyl]-2-pyridyl]-3,5,5-trimethyl-imidazol-4-one], the Ki was 16 nM.

For `CN1C(=O)C(C)(C)N=C1c1ncc(C#Cc2cccc(Cl)c2)cn1` [Example 4, 2-[5-[2-(3-Chlorophenyl)ethynyl]-2-pyrimidyl]-3,5,5-trimethyl-imidazol-4-one], the Ki was 80 nM.

As for `CN1C(=O)C(C)(C)N=C1c1ncc(C#Cc2ccccc2)cn1` [Example 5, 3,5,5-Trimethyl-2-[5-(2-phenylethynyl)-2-pyrimidyl]imidazol-4-one], the Ki is 281 nM.

Turning to `CN1C(=O)C(C)(C)N=C1c1ncc(C#Cc2cccc(F)c2)cn1` [Example 6, 2-[5-[2-(3-Fluorophenyl)ethynyl]-2-pyrimidyl]-3,5,5-trimethyl-imidazol-4-one], the inhibition constant Ki is 280 nM.
